Read-outs that look alike come from different tables or passages of the source.

The term melting point denotes the temperature, or range, at which the solid turns liquid. What is called IC50 is the concentration needed to halve the response being measured.

Data set [1] deals with L. donovani strain 9515 promastigotes. As to the kind of experiment: Antipromastigote assay (resazurin). The data set is classed as cell-based. The conditions noted are these: L. donovani 9515, read-out: 9515 IC50 ± SD, Promastigote. Here is the method: (§1) The antipromastigote activity of synthesized compounds was evaluated as described previously by Mangwegape et al. ([2021]) using three strains of L. donovani (1S (MHOM/SD/62/1S) and 9515 (MHOM/IN/95/9515)) and L. major (IR‐173 [MHOM/IR/−173]). The assay method is available in the Supinfo S1.
(§2) The antipromastigote activity of synthesized compounds was evaluated using a modified, resazurin-based method of Kulshrestha et al. ^2 and Siqueira-Neto et al. ^3 and on three Leishmania strains. Leishmania donovani (strains 1S (MHOM/SD/62/1S) and 9515 (MHOM/IN/95/9515)) and L. major (strain IR-173 (MHOM/IR/-173)) promastigotes were cultured in M199 with Hank's salts and 0.68 mM L-glutamine (Sigma Aldrich) supplemented with 50 U/mL Penicillin/Streptomycin solution (Lonza), 4.2 mM sodium bicarbonate, 25 mM Hepes, 10% fetal bovine serum, 0.25% hemin, 0.1% biotin, and 10 mM adenine (Sigma Aldrich) and the pH adjusted to 7.3 – 7.4. The promastigotes were maintained at 25 °C.
(§3) Amphothericin B (10 μM) served as the standard drug and growth medium without parasites served as the blank. The plates were incubated for 48 hours at 25 °C in humidified atmosphere. After incubation, 50 μL of resazurin solution (0.01% in PBS) was added to each well and the plates were further incubated at 25 °C in the dark for 24 hours. Absorbance was measured at 570 nm and 600 nm using the Thermofisher Scientific GO Multiscan plate reader. Data analysis was performed for each biological replicate using SkanIt 4.0 Research Edition software. Background absorbance of resazurin (600 nm) was subtracted from the absorbance values of resorufin (570 nm). The mean absorbance calculated and the percentage growth inhibition and cell viability were determined by the following equations: […]
(§4) The IC50 and Z-score were determined for each compound’s three biological replicates using the cell viability % values and GraphPad Prism 5. The mean IC50 of the biological replicates with standard deviation (SD) served as the final IC50 of each compound.

Data set [2] concerns L. major strain IR‐173 promastigotes. As to the kind of experiment: Antipromastigote assay (resazurin). Type of data set: cell-based. The conditions noted are these: L. major IR‐173, read-out: Antileishmanial activity, IC50 ± SD, Promastigote. Here is the method: as §1, §2, §3, §4
(In general: The colour change of resazurin is a common sign of viable cells or microbes.)

For data set [3], the system named is L. donovani strain 1S promastigotes. As to the kind of experiment: Antipromastigote assay (resazurin). The data set is classed as cell-based. The settings on record: L. donovani 1S, read-out: 1S IC50 ± SD, Promastigote. As for the experimental part:
as §1, §2, §3, §4

Data set [4] concerns A375 melanoma cells. Put plainly: Anticancer assay (resazurin). Type of data set: cell-based, human. The conditions noted are these: n = 3, read-out: Anticancer activity, IC50 ± SD, A375. Here is the method:
(§5) The anticancer activities of synthesized compounds were evaluated using a resazurin‐based assay (Czekanska, [2011]). Accordingly, a screening method similar to that of the cytotoxicity assay was used to screen for anticancer activity, using human melanoma (A375), promyelocytic leukemia (Clone 15 HL‐60), lung cancer (A549), and breast cancer (MCF7) cells. The culture and assay methods are provided in the Supinfo S1.
(§6) The potential anticancer activities of synthesized compounds were screened using the resazurin assay. ^5 Breast adenocarcinoma (MCF7, ATCC® HTB-22™) and human melanoma (A375, ATCC® CRL-1619™) cells were cultured in Hyclone Dulbecco's modified Eagle’s medium with high glucose (Separations) supplemented with 10 % fetal bovine serum (FBS) (Thermofisher Scientific) and 1 % L-glutamine, penicillin-streptomycin and non-essential amino acids (Lonza). Human lung carcinoma (A549, ATCC®, CCL-185™) cells were cultured in Ham’s F12K medium supplemented with 10% FBS and 1% L-glutamine, penicillin-streptomycin and non-essential amino acids. Human promyelocytic leukemia (Clone 15 HL-60, ATCC® CRL-1946™) cells were cultured in RPMI-1640 medium (Sigma Aldrich) supplemented with 10% FBS and 1% penicillin-streptomycin. The cell lines were maintained in a humidified atmosphere at 37 °C and 5% CO2.
(§7) For the resazurin assay, 96 well plates were prepared with 100 μL of 100 000 cells/mL MCF7 cell suspension, 100 μL of 50 000 cells/mL A375 cell suspension, 100 μL of 25 000 cells/mL A549 cell suspension, or 50 μL of 50 000 cells/mL HL-60 cell suspension. The MCF7, A375 and A549 cell plates were incubated for 24 hours to allow adherence of the cells to the plate surface, after which the growth medium is replaced with 100 μL medium containing compounds. […] The cell lines were treated with: (i) parthenolide (Sigma Aldrich) (positive control); (ii) growth medium and solvent (negative control to compensate for possible solvent effects); (iii) growth medium and experimental compound solutions. […] Blanks contained growth medium without cells. The treated plates were incubated for 48 hours.
(§8) To initiate the resazurin assay, 50 μL of sterile-filtered resazurin sodium salt (Sigma Aldrich) solution (0.01 % in PBS) was added and the plates incubated for 2 hours (MCF7, A375 and A549 cells) or 24 hours (HL-60 cells). Absorbance was measured at 570 and 600 nm using the Thermofisher Scientific GO Multiscan plate reader. Data analysis was performed for each biological replicate using SkanIt 4.0 Research Edition software. Further data analysis, calculations and IC50 determinations were identical to that of the antileishmanial and cytotoxicity assays.
(§9) For the final IC50 of each compound, the mean IC50 of the biological replicates were calculated with standard deviation (SD).

For data set [5], the system named is Clone 15 HL‐60 promyelocytic leukemia cells. As to the kind of experiment: Anticancer assay (resazurin). The data set is classed as cell-based, human. The conditions noted are these: for IC50: read-out: Anticancer activity, IC50 ± SD, Clone 15 HL‐60. As for the experimental part: as §5, §6, §7, §8, §9
For data set [6], the system named is L. donovani strain 9515 amastigotes. Put plainly: Anti-amastigote assay (intramacrophage, THP-1 host, resazurin). The settings on record: L. donovani 9515, read-out: 9515 IC50 ± SD, Amastigote. The data set is classed as cell-based. As for the experimental part: (§10) The activities of synthesized compounds against the intramacrophage parasites of the three Leishmania strains were evaluated using a modified, resazurin‐based method (Jain et al., [2012]; Njanpa et al., [2021]). Suspension cultures of human acute monocytic leukemia (THP‐1) cells were maintained in RPMI‐1640 medium (Sigma Aldrich) supplemented with 10% FBS and 1% penicillin–streptomycin, at 37°C and 5% CO2 in a humidified atmosphere. Duplicate 96‐well plates (for respective anti‐amastigote and cytotoxicity assays) were seeded with 200 μl of a 2.5 × 10^5 cells/ml suspension treated with 25 ng/ml phorbol 12‐myristate 13‐acetate (PMA), followed by 48‐h incubation to promote differentiation into adherent macrophages.
(§11) For the anti‐amastigote assay, differentiated plates were carefully washed with PBS, followed by the addition of 200 μl of stationary phase promastigotes in RPMI 1640 medium with 2% FBS. An MOI of 30:1 was used for all three Leishmania strains. The parasite‐treated plates were incubated for 24 h at 32°C (L. major) or 37°C (L. donovani) and 5% CO2 to promote infection of the macrophages. […] Blanks were represented by growth medium without cells, as well as parasite‐free THP‐1 cells. The treated plates were incubated for 72 h.
(§12) After incubation, the plates were gently washed three times with PBS to remove any remaining extracellular parasites. The wells were then treated with 20 μl of 0.05% sodium dodecyl sulfate in PBS for 30 s to lyse the host macrophages. Lysis was terminated by adding 180 μl promastigote growth medium with 10% FBS. To initiate the resazurin assay, 10 μl of resazurin solution (0.025% in PBS) was added to all wells and the plates were incubated for 24 h at 32°C (L. major) or 37°C (L. donovani) and 5% CO2. Absorbance measurements, calculations, and IC50 determinations were performed as described for the antipromastigote assay (Supinfo S1).

The subject of data set [7] is L. donovani strain 1S amastigotes. The description is as above. Type of data set: cell-based. The settings on record: L. donovani 1S, read-out: 1S IC50 ± SD, Amastigote. Here is the method:
as §10, §11, §12

Data set [8] has as its system L. major strain IR‐173 amastigotes. The data set is described as above. The data set is classed as cell-based. The settings on record: read-out: Antileishmanial activity, IC50 ± SD, Amastigote. As for the experimental part: as §10, §11, §12
[9] abbreviates: Leishmania major, THP-1, L. major IR‐173.

As for `CC(=O)Nc1ccc(S(=O)(=O)NN)cc1` [1 g, N-[4-(Hydrazinylsulfonyl)phenyl]acetamide], the melting point fell in the range of 175 to 178 °C.

`NNS(=O)(=O)c1ccc(I)cc1` [1a, 4-Iodobenzenesulfonohydrazide] displayed a melting point of 160 to 162 °C.

In the case of `NNS(=O)(=O)c1ccc([N+](=O)[O-])cc1` [1b, 4-Nitrobenzenesulfonohydrazide], the melting point fell in the range of 149 to 152 °C.

In turn, `Cc1cc(C)c(S(=O)(=O)NN)c(C)c1` [1e, 2,4,6-Trimethylbenzenesulfonohydrazide] gave a melting point of 110 to 113 °C.

`NNS(=O)(=O)c1ccc(-c2ccccc2)cc1` [1h, (1,1'-Biphenyl)-4-sulfonohydrazide] registered a melting point of 180 to 183 °C.

`NNS(=O)(=O)C1(F)C=CC(c2ccccc2)=CC1` (stereo not drawn) [1i, 4-Fluoro-(1,1'-biphenyl)-4-sulfonohydrazide] registered a melting point of 164 to 169 °C.

Take `NNS(=O)(=O)C1(Cl)C=CC(c2ccccc2)=CC1` (stereo not drawn) [1j, 4-Chloro-(1,1'-biphenyl)-4-sulfonohydrazide]: the melting point is 150 to 153 °C.

Consider `COC1(S(=O)(=O)NN)C=CC(c2ccccc2)=CC1` (stereo not drawn) [1k, 4-Methoxy-(1,1'-biphenyl)-4-sulfonohydrazide], for which the melting point was 173 to 175 °C.

On to `O=[N+]([O-])c1ccc(/C=N/NS(=O)(=O)c2ccc(I)cc2)o1` [2a, (E)-4-Iodo-N'-[(5-nitrofuran-2-yl)methylene]benzenesulfonohydrazide], for which the IC50 was over 10 µM in [1] (Leishmania donovani); over 10 µM in [2] (Leishmania major); over 10 µM in data set [3] (Leishmania donovani); over 10 µM in data set [4] (Homo sapiens, A-375); over 10 µM in [5] (Homo sapiens, HL-60, n = 3); over 10 µM in data set [6] (Leishmania donovani, THP-1). Moreover, the IC50 in [7] (Leishmania donovani, THP-1) was over 10 µM; in [8] (setting [9]), over 10 µM.

In the case of `O=[N+]([O-])c1ccc(S(=O)(=O)N/N=C/c2ccc([N+](=O)[O-])o2)cc1` [2b, (E)-4-Nitro-N'-[(5-nitrofuran-2-yl)methylene]benzenesulfonohydrazide], the IC50 in data set [1] (Leishmania donovani) was over 10 µM; in [2] (Leishmania major) it was over 10 µM; in data set [3] (Leishmania donovani), over 10 µM; in data set [4] (Homo sapiens, A-375), over 10 µM; in [5] (Homo sapiens, HL-60, n = 3), under 10 µM; in [5] (n = 3), 9.32 ± 0.9 µM. Besides, the IC50 in [6] (Leishmania donovani, THP-1) is over 10 µM; in data set [7] (Leishmania donovani, THP-1) it was over 10 µM; in data set [8] (setting [9]), over 10 µM. Also, the “Preliminary screening, growth inhibition, Clone 15 HL‐60” value in data set [5] (cutoff 50% growth inhibition at 10 μM) is reported as “qualified”.

In the case of `CC(=O)Nc1ccc(S(=O)(=O)N/N=C/c2ccc([N+](=O)[O-])o2)cc1` [2g, (E)-N-{4-{ {2-[(5-nitrofuran-2-yl)methylene]hydrazinyl}sulfonyl}phenyl}acetamide], the half-maximal inhibitory concentration (IC50) in data set [2] (Leishmania major) was over 10 µM; in data set [3] (Leishmania donovani), over 10 µM; in data set [4] (Homo sapiens, A-375) it was over 10 µM; in [7] (Leishmania donovani, THP-1) it was over 10 µM; in [8] (setting [9]), over 10 µM.

As to `O=C1OCCN1/N=C/c1ccc([N+](=O)[O-])o1` [FZD, furazolidone, reference compound], the IC50 in data set [1] (Leishmania donovani) is 0.28 ± 0.04 µM; in [2] (Leishmania major), 0.34 ± 0.03 µM; in [3] (Leishmania donovani), 0.32 µM; in [7] (Leishmania donovani, THP-1), 1.94 µM; in data set [8] (setting [9]), 2.8 ± 0.5 µM.

In the case of `C=C1C(=O)O[C@H]2[C@H]1CC/C(C)=C/CC[C@@]1(C)O[C@@H]21` [PN, parthenolide, reference compound], the IC50 was found to be 5.13 ± 0.81 µM in data set [4] (Homo sapiens, A-375) and 1.85 ± 0.15 µM in [5] (Homo sapiens, HL-60, n = 3).

Take “(E)-4-Chloro-N'-[(5-nitrofuran-2-yl)methylene]-(1,1'-biphenyl)-4-sulfonohydrazide [2j]”: the IC50 in data set [1], in [2], in data set [3], in data set [4], in data set [5] (n = 3) and in [6] was over 10 µM each time. In addition, the IC50 in data set [7] and in [8] (L. major IR‐173) was over 10 µM throughout.

For “(E)-4-Methoxy-N'-[(5-nitrofuran-2-yl)methylene]-(1,1'-biphenyl)-4-sulfonohydrazide [2k]”, the IC50 in data set [1], in data set [2], in [3], in data set [4], in data set [5] (n = 3) and in data set [6] was over 10 µM each time. The IC50 in data set [7] and in [8] (L. major IR‐173) was over 10 µM each time.

Values taken from publication PMC9546217, “Exploring novel nitrofuranyl sulfonohydrazides as anti‐Leishmania and anti‐cancer agents: Synthesis, in vitro efficacy and hit identification” (Chemical Biology & Drug Design, 2022).
